Experimental data from patent US8722736B2, “Multi-dose concentrate esmolol with benzyl alcohol” (Baxter International Inc., priority 2007, dated 2014).

Experiment: pH dependence of esmolol degradation
Format: physicochemical
Source text: The concentrate of present invention can also include a pharmaceutically acceptable buffer to aid in maintaining the pH in a range of from about 3.5 to about 7.0. Preferably, the pH is maintained between about 4.5 and about 5.5, more preferably between 4.9 and 5.1. […] Suitable buffers are those buffers that provide sufficient buffering capacity at the desired pH range and are pharmaceutically acceptable for injection into a patient. Examples of buffers useful in the present invention include, but are not limited to, acetate, glutamate, citrate, tartrate, benzoate, lactate, gluconate, phosphate and glycine and conjugate acids thereof. The concentration of the buffer can be from about 0.005 to about 2 M. In a preferred embodiment, the buffering agent comprises a combination of sodium acetate and glacial acetic acid. A preferred combination of buffers can include sodium acetate at from about 0.005 to about 0.3 M and glacial acetic acid at from about 0.05 to about 0.3 M.

Q: For `COC(=O)CCc1ccc(OCC(O)CNC(C)C)cc1.Cl` (stereo not shown) [esmolol, methyl3-[4-[2-hydroxy-3-(isopropylamino)propoxy]phenyl]propionate hydrochloride], which “pH at which esmolol is most stable” value is on record?
A: about 5.0
